In PMC3961306, “Comparison of the Cancer Gene Targeting and Biochemical Selectivities of All Targeted Kinase Inhibitors Approved for Clinical Use” (PLoS ONE, 2014):

Legend:
Test in all cases: Kinase profiling in a biochemical assay panel (mobility shift assays and ELISA), %-inhibition at 1 μM; selectivity entropy
[1] = target: T1, panel of more than 300 wild-type and mutant kinases (313 kinase panel) (Homo sapiens, UniProt O00418)
T1 sequence (O00418 1-725): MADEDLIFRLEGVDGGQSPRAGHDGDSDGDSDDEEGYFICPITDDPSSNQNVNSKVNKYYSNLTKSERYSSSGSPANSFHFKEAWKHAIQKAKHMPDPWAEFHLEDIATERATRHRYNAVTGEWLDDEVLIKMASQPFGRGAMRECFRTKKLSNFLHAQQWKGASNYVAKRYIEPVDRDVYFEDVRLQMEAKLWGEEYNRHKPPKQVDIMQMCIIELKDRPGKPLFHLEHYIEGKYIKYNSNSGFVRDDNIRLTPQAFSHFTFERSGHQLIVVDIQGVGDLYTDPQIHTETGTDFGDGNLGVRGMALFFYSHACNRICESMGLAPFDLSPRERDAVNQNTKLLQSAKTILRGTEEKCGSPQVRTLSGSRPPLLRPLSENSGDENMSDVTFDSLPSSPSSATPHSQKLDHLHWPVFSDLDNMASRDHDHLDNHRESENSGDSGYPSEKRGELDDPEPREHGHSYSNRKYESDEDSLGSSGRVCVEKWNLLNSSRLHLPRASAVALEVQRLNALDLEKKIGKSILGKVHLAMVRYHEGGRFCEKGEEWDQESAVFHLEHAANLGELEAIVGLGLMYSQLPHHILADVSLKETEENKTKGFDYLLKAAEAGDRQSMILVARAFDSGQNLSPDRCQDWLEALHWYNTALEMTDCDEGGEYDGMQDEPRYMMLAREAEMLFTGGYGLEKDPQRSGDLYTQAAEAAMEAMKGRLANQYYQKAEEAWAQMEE

[2] = target: T2, panel of more than 300 wild-type and mutant kinases (313 kinase panel) (Homo sapiens, UniProt O15530)
T2 sequence (O15530 1-556): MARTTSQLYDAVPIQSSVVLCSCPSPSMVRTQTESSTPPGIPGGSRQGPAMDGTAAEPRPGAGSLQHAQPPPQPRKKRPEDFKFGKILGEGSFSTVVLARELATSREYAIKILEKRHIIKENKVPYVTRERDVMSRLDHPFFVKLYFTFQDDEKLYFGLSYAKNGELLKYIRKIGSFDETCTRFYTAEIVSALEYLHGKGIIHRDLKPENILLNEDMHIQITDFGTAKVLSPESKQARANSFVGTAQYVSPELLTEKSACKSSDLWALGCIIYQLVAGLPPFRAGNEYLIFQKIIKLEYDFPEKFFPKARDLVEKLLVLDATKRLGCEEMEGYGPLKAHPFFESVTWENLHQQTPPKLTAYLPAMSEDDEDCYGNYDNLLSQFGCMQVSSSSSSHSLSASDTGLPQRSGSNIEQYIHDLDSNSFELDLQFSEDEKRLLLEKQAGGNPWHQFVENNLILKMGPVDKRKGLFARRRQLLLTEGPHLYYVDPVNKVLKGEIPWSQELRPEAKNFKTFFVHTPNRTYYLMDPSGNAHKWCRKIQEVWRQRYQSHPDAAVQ

[3] = target: panel of more than 300 wild-type and mutant kinases (313 kinase panel) (Homo sapiens, UniProt P07948)
[4] = target: panel of more than 300 wild-type and mutant kinases (313 kinase panel) (Homo sapiens, UniProt P16234)
Chain of panel of more than 300 wild-type and mutant kinases (313 kinase panel) (Homo sapiens, UniProt P16234) (P16234 24-1089, change not shown): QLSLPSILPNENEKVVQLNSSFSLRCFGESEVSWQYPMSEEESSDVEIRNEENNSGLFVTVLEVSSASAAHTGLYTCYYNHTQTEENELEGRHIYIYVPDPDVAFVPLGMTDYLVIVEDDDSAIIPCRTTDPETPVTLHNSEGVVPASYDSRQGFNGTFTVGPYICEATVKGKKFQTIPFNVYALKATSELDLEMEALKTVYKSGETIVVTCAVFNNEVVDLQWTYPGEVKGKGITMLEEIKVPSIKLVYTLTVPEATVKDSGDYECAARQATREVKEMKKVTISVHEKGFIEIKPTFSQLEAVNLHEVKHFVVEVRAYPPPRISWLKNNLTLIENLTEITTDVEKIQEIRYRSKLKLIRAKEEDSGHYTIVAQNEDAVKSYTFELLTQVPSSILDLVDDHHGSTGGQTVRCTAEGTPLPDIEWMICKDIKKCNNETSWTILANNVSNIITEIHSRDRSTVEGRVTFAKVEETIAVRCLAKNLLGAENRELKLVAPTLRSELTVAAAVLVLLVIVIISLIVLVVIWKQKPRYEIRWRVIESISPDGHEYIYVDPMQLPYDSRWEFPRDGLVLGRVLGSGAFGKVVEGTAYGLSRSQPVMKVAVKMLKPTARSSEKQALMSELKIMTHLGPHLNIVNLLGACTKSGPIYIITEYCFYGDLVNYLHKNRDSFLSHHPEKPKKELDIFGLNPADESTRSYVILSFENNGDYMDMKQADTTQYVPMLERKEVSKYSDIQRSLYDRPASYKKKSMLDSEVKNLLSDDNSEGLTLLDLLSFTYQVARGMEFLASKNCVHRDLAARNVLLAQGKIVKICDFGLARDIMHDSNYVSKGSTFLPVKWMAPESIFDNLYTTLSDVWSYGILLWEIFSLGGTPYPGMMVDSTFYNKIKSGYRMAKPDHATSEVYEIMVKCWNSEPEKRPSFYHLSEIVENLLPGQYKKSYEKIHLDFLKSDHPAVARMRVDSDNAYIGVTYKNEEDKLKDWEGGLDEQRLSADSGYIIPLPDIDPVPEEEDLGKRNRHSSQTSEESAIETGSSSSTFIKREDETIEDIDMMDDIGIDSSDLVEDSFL

[5] = target: T3, panel of more than 300 wild-type and mutant kinases (313 kinase panel) (Homo sapiens, UniProt Q9NRA0)
T3 sequence (Q9NRA0 1-654): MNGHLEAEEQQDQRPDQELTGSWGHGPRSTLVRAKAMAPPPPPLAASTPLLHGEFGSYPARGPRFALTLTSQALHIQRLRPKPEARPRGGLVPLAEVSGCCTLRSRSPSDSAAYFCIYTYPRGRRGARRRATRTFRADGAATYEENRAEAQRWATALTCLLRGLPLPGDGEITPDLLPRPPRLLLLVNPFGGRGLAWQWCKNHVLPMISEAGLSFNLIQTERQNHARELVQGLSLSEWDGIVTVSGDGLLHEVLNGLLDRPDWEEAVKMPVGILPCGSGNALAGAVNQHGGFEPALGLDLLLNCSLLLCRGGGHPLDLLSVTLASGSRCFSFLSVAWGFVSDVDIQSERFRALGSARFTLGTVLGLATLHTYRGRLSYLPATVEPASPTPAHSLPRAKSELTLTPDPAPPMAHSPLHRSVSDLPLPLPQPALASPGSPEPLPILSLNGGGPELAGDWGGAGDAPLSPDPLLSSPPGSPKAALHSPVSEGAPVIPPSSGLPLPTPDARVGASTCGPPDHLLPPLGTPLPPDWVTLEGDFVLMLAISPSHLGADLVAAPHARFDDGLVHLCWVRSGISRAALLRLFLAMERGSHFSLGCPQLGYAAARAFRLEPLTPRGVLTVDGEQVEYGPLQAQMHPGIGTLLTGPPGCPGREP

[6] = target: panel of more than 300 wild-type and mutant kinases (313 kinase panel) (Homo sapiens, UniProt Q9P286)
Chain of panel of more than 300 wild-type and mutant kinases (313 kinase panel) (Homo sapiens, UniProt Q9P286) (Q9P286 whole entry, change not shown): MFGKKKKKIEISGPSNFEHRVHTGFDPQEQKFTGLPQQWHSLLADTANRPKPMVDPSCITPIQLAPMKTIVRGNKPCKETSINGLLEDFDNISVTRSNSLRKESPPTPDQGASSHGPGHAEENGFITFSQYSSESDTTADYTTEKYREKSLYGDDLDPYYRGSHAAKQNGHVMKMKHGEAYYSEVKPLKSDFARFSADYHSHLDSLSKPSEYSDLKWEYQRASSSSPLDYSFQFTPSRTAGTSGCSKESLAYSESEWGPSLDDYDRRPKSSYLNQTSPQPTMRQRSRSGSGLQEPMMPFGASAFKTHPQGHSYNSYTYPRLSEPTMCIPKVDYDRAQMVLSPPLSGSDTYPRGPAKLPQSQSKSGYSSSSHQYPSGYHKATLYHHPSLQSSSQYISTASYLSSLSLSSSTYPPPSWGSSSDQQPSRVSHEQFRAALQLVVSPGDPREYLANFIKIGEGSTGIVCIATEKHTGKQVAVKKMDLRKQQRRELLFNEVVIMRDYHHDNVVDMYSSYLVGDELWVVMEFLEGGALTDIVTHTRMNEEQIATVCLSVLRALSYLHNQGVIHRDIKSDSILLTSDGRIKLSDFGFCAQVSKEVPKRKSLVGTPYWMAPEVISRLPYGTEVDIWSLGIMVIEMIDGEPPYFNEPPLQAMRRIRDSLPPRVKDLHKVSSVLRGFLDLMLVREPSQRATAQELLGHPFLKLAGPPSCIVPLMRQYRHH

[7] = target: panel of more than 300 wild-type and mutant kinases (313 kinase panel) (Homo sapiens, UniProt P68400)

Compound | %-inhibition of EEF2K ([1]; kinase EEF2K, compound at 1 μM) [%] | %-inhibition of PDK1 ([2]; kinase PDK1, 1 μM) [%] | %-inhibition of LYNa ([3]; kinase LYNa, compound at 1 μM) [%] | %-inhibition of PDGFRα ([4]; kinase PDGFRα, 1 μM) [%] | %-inhibition of SPHK2 ([5]; kinase SPHK2, 1 μM) [%] | %-inhibition of PAK5 ([6]; kinase PAK5, 1 μM) [%] | %-inhibition, CK2α1/β ([7]; kinase CK2α1/β, 1 μM compound) [%] | %-inhibition of EEF2K ([1]; 1 µM) [%] | %-inhibition of PDK1 ([2]; 1 µM) [%] | %-inhibition of LYNa ([3]; 1 µM) [%] | %-inhibition of PDGFRα ([4]; 1 µM) [%] | %-inhibition, CK2α1/β ([7]; 1 µM) [%] | %-inhibition of SPHK2 ([5]; 1 µM) [%] | %-inhibition of PAK5 ([6]; 1 µM) [%]
Cc1ccc(C(=O)Nc2ccc(CN3CCN(C)CC3)c(C(F)(F)F)c2)cc1C#Cc1cnc2cccnn12 [ponatinib] | -4 | -5 | 100 | 103 | 11 | -0.481 | – | – | – | – | – | – | – | –
CC(C)(C)c1nc(-c2cccc(NS(=O)(=O)c3c(F)cccc3F)c2F)c(-c2ccnc(N)n2)s1 [dabrafenib] | – | -5.38 | – | 63 | -14 | 21 | – | – | – | – | – | – | – | –
COc1cc(Nc2c(C#N)cnc3cc(OCCCN4CCN(C)CC4)c(OC)cc23)c(Cl)cc1Cl [bosutinib] | -7 | -4.64 | 93 | 77 | 4.4 | 17 | – | – | – | – | – | – | – | –
Cc1nc(Nc2ncc(C(=O)Nc3c(C)cccc3Cl)s2)cc(N2CCN(CCO)CC2)n1 [dasatinib] | – | – | – | – | – | – | -1.7 | – | – | – | – | – | – | –
CO[C@H]1C[C@@H]2CC[C@@H](C)[C@@](O)(O2)C(=O)C(=O)N2CCCC[C@H]2C(=O)O[C@H]([C@H](C)C[C@@H]2CC[C@@H](OC(=O)C(C)(CO)CO)[C@H](OC)C2)CC(=O)[C@H](C)/C=C(\C)[C@@H](O)[C@@H](OC)C(=O)[C@H](C)C[C@H](C)/C=C/C=C/C=C/1C [temsirolimus] | -6 | -8 | -4.48 | 3.45 | 2.77 | -6 | -6.65 | – | – | – | – | – | – | –
C#Cc1cccc(Nc2ncnc3cc(OCCOC)c(OCCOC)cc23)c1 [erlotinib] | – | – | – | – | – | – | – | -0.225 | 3 | 64 | 52 | 0 | -2.22 | -0.141
CCCS(=O)(=O)Nc1ccc(F)c(C(=O)c2c[nH]c3ncc(-c4ccc(Cl)cc4)cc23)c1F [vemurafenib] | -5 | -4 | 73 | 87 | 8 | -1.23 | -5.39 | – | – | – | – | – | – | –
N#CC[C@H](C1CCCC1)n1cc(-c2ncnc3[nH]ccc23)cn1 [ruxolitinib] | -6 | -3.16 | 13 | 35 | 6 | 14 | -6 | – | – | – | – | – | – | –
CC(=O)Nc1cccc(-n2c(=O)n(C3CC3)c(=O)c3c(Nc4ccc(I)cc4F)n(C)c(=O)c(C)c32)c1 [trametinib] | -3.43 | -5.52 | -1.74 | 4.53 | -14 | -2.62 | -3.4 | – | – | – | – | – | – | –
COc1cc2c(Nc3ccc(Br)cc3F)ncnc2cc1OCC1CCN(C)CC1 [vandetanib] | -10 | -4.37 | 93 | 101 | 5.7 | -3.26 | -7 | – | – | – | – | – | – | –
CS(=O)(=O)CCNCc1ccc(-c2ccc3ncnc(Nc4ccc(OCc5cccc(F)c5)c(Cl)c4)c3c2)o1 [lapatinib] | -2.58 | – | – | – | -4 | – | -1.7 | – | -2.71 | 9 | 40 | – | – | -0.566
CO[C@H]1C[C@@H]2CC[C@@H](C)[C@@](O)(O2)C(=O)C(=O)N2CCCC[C@H]2C(=O)O[C@H]([C@H](C)C[C@@H]2CC[C@@H](OCCO)[C@H](OC)C2)CC(=O)[C@H](C)/C=C(\C)[C@@H](O)[C@@H](OC)C(=O)[C@H](C)C[C@H](C)/C=C/C=C/C=C/1C [everolimus] | -14 | -9 | -1.27 | 1.15 | 1.25 | -1.87 | -4.26 | – | – | – | – | – | – | –
CCN(CC)CCNC(=O)c1c(C)[nH]c(/C=C2\C(=O)Nc3ccc(F)cc32)c1C [sunitinib] | – | – | – | – | – | 35 | -21 | – | – | – | – | – | – | –
CNC(=O)c1cc(Oc2ccc(NC(=O)Nc3ccc(Cl)c(C(F)(F)F)c3)c(F)c2)ccn1 [regorafenib] | -11 | -3 | 89 | 102 | -3.2 | -8 | -9 | – | – | – | – | – | – | –
O=S(=O)(c1cccc2cnccc12)N1CCCNCC1 [fasudil] | -3.43 | -2.83 | -1.61 | 16 | -21 | -6.61 | -4 | – | – | – | – | – | – | –
C[C@@H](Oc1cc(-c2cnn(C3CCNCC3)c2)cnc1N)c1c(Cl)ccc(F)c1Cl [crizotinib] | -4.6 | -5 | 42 | 49 | 8 | 7 | – | – | – | – | – | -6.39 | – | –
CN(C)C/C=C/C(=O)Nc1cc2c(Nc3ccc(F)c(Cl)c3)ncnc2cc1O[C@H]1CCOC1 [afatinib] | – | – | – | – | -10 | – | – | – | – | – | – | – | – | –
Cc1ccc(Nc2nccc(N(C)c3ccc4c(C)n(C)nc4c3)n2)cc1S(N)(=O)=O [pazopanib] | -3 | -0.284 | 84 | – | 4 | 2 | -3 | – | – | – | – | – | – | –
